Active and inactive are the calls of the source. The rule behind the calls is not given here.
Test system: CCRIS mutagenicity, Ames/micronucleus/aberration tests
Assay: CCRIS mutagenicity studies
Settings: Test System: AMES SALMONELLA TYPHIMURIUM
[1] = Strain/Indicator: TA98, Metabolic Activation: NONE, Method: STANDARD PLATE
[2] = Strain/Indicator: TA100, Metabolic Activation: NONE, Method: STANDARD PLATE

SMILES | mutagenic call (Strain/Indicator: TA97A, Metabolic Activation: NONE, Method: STANDARD PLATE) | mutagenic call (Strain/Indicator: TA97A, Metabolic Activation: PLANT, HOMOGENATE, S-14, Method: STANDARD PLATE) | mutagenic call (Strain/Indicator: TA97A, Metabolic Activation: S-9, Method: STANDARD PLATE) | mutagenic call [1] | mutagenic call (Strain/Indicator: TA98, Metabolic Activation: PLANT, HOMOGENATE, S-14, Method: STANDARD PLATE) | mutagenic call (Strain/Indicator: TA98, Metabolic Activation: S-9, Method: STANDARD PLATE) | mutagenic call [2] | mutagenic call (Strain/Indicator: TA100, Metabolic Activation: PLANT, HOMOGENATE, S-14, Method: STANDARD PLATE) | mutagenic call (Strain/Indicator: TA100, Metabolic Activation: S-9, Method: STANDARD PLATE) | mutagenic call (Strain/Indicator: TA1535, Metabolic Activation: PLANT, HOMOGENATE, S-14, Method: STANDARD PLATE) | mutagenic call (Strain/Indicator: TA1535, Metabolic Activation: S-9, Method: STANDARD PLATE) | mutagenic call (Strain/Indicator: TA1535, Metabolic Activation: S-9 MIX, Method: STANDARD PLATE) | mutagenic call (Strain/Indicator: TA100, Metabolic Activation: NONE, Method: PREINCUBATION) | mutagenic call (Strain/Indicator: TA100, Metabolic Activation: RAT, KIDNEY, CYTOSOL, Method: PREINCUBATION) | mutagenic call (Strain/Indicator: TA100, Metabolic Activation: RAT, KIDNEY, MICROSOMES, Method: PREINCUBATION) | mutagenic call (Strain/Indicator: TA100, Metabolic Activation: RAT, KIDNEY, MITOCHONDRIA, Method: PREINCUBATION) | mutagenic call (Strain/Indicator: TA100, Metabolic Activation: RAT, KIDNEY, S-9, AROCLOR 1254, Method: STANDARD PLATE)
CCSCCSP(=S)(OC)OC | inactive; negative | inactive; negative | inactive; negative | inactive; negative | inactive; negative | inactive; negative | inactive; negative | inactive; negative | inactive; negative | inactive; negative | inactive; negative | active; positive | – | – | – | – | –
N[C@@H](CCC(=O)N[C@@H](CS/C(Cl)=C(\Cl)C(Cl)=C(Cl)Cl)C(=O)NCC(=O)O)C(=O)O | – | – | – | – | – | – | inactive; negative | – | – | – | – | – | active; positive | active; positive | active; positive | active; positive | active; positive
c1ccc2c(c1)C1CCCCC1[C@@H]1O[C@@H]21 (stereo not given in full) | – | – | – | inactive; negative | – | – | inactive; negative | – | – | – | – | – | – | – | – | – | –

From PubChem BioAssay AID1259407 (Chemical Carcinogenesis Research Information System (CCRIS), 2018)
